Converted amounts (≈) assume the structure as drawn.
Tests used:
Type in all cases: functional
[1] = test system: Mycobacterium tuberculosis; test: Antibacterial activity against multidrug-resistant 1 ug/ml Mycobacterium tuberculosis clinical isolate 1259 assessed as growth inhibition after 7 days by microtiter plate assay; settings: isolate 1259, 168 h
[2] = test system: Mycobacterium tuberculosis; test: Antibacterial activity against multidrug-resistant 1 ug/ml Mycobacterium tuberculosis clinical isolate 930 assessed as growth inhibition after 7 days by microtiter plate assay; settings: isolate 930, 168 h
[3] = test system: Mycobacterium tuberculosis; test: Antibacterial activity against multidrug-resistant 1 ug/ml Mycobacterium tuberculosis clinical isolate 1237 assessed as growth inhibition after 7 days by microtiter plate assay; settings: isolate 1237, 168 h
[4] = test system: Mycobacterium tuberculosis; test: Antibacterial activity against multidrug-resistant 1 ug/ml Mycobacterium tuberculosis clinical isolate 1288 assessed as growth inhibition after 7 days by microtiter plate assay; settings: isolate 1288, 168 h
[5] = test system: Mycobacterium tuberculosis; test: Antibacterial activity against multidrug-resistant 1 ug/ml Mycobacterium tuberculosis clinical isolate 1256 assessed as growth inhibition after 7 days by microtiter plate assay; settings: isolate 1256, 168 h

SMILES: C[C@H]1[C@@H](OCCCNC2CCN(c3c(F)cc4c(=O)c(C(=O)O)cn(C5CC5)c4c3Cl)C2)O[C@@H]2O[C@@]3(C)CC[C@H]4[C@H](C)CC[C@@H]1[C@@]24OO3 (stereo not given in full)
- MIC [1]: 2 µg/mL (≈ 2.9 µM)
- MIC [2]: 4 µg/mL (≈ 5.8 µM)
- MIC [3]: 2 µg/mL (≈ 2.9 µM)
- MIC [4]: 0.125 µg/mL (≈ 0.181 µM)
- MIC [5]: 16 µg/mL (≈ 23.2 µM)

SMILES: C[C@H]1[C@@H](OCCNC2CCN(c3c(F)cc4c(=O)c(C(=O)O)cn(C5CC5)c4c3Cl)C2)O[C@@H]2O[C@@]3(C)CC[C@H]4[C@H](C)CC[C@@H]1[C@@]24OO3 (stereo not given in full)
- MIC [1]: 2 µg/mL (≈ 2.96 µM)
- MIC [2]: 4 µg/mL (≈ 5.92 µM)
- MIC [3]: 2 µg/mL (≈ 2.96 µM)
- MIC [4]: 0.125 µg/mL (≈ 0.185 µM)
- MIC [5]: 16 µg/mL (≈ 23.7 µM)

SMILES: C[C@H]1[C@@H](O)O[C@@H]2O[C@@]3(C)CC[C@H]4[C@H](C)CC[C@@H]1[C@@]24OO3 [ARTENIMOL]
- MIC [1]: > 16 µg/mL
- MIC [2]: > 16 µg/mL
- MIC [3]: > 16 µg/mL
- MIC [4]: > 16 µg/mL
- MIC [5]: > 16 µg/mL

SMILES: NC1CCN(c2c(F)cc3c(=O)c(C(=O)O)cn(C4CC4)c3c2Cl)C1 (stereo not given) [CLINAFLOXACIN]
- MIC [1]: 0.125 µg/mL (≈ 0.342 µM)
- MIC [2]: 4 µg/mL (≈ 10.9 µM)
- MIC [3]: 1 µg/mL (≈ 2.73 µM)
- MIC [4]: 1 µg/mL (≈ 2.73 µM)
- MIC [5]: 0.5 µg/mL (≈ 1.37 µM)

SMILES: CCn1cc(C(=O)O)c(=O)c2cc(F)c(N3CCNCC3)cc21 [NORFLOXACIN]
- MIC [1]: 2 µg/mL (≈ 6.26 µM)
- MIC [2]: > 16 µg/mL
- MIC [3]: > 16 µg/mL
- MIC [4]: > 16 µg/mL
- MIC [5]: 16 µg/mL (≈ 50.1 µM)

SMILES: O=C(O)c1cn(-c2ccc(F)cc2)c2cc(N3CCNCC3)c(F)cc2c1=O [SARAFLOXACIN]
- MIC [1]: 4 µg/mL (≈ 10.4 µM)
- MIC [2]: > 16 µg/mL
- MIC [3]: > 16 µg/mL
- MIC [4]: > 16 µg/mL
- MIC [5]: 16 µg/mL (≈ 41.5 µM)

Source: ChEMBL document CHEMBL3232938, “Design, synthesis, and biological evaluation of dihydroartemisinin-fluoroquinolone conjugates as a novel type of potential antitubercular agents” (2014)
